Test results published in ChEMBL document CHEMBL1201862, “PubChem BioAssay data set” (2004).
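Where inhibition never reached the appropriate level, the endpoint shown equals the highest concentration tested. Otherwise, values were interpolated linearly from a five-concentration, 48-hour dose response in 96-well plates. GI50 is the concentration that inhibits growth by half.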 Active and inactive are the calls of the source. No stated cut-off is given here; in the data, active = GI50 up to about 1.1 µM and inactive = higher.

How the values were obtained:
Test in all cases: growth of human tumour cells (NCI), 48 h
NCI-H226 = tested on: NCI-H226
ACHN = tested on: ACHN
RXF 393 = tested on: RXF 393
SW-620 = tested on: SW-620
SN12C = tested on: SN12C
SK-OV-3 = tested on: SK-OV-3
786-0 = tested on: 786-0
KM12 = tested on: KM12
T47D = tested on: T47D
SF-268 = tested on: SF-268
NCI-H522 = tested on: NCI-H522
HCT-15 = tested on: HCT-15
SK-MEL-2 = tested on: SK-MEL-2
HOP-92 = tested on: HOP-92
Malme-3M = tested on: Malme-3M
SK-MEL-28 = tested on: SK-MEL-28
SF-539 = tested on: SF-539
SK-MEL-5 = tested on: SK-MEL-5
MOLT-4 = tested on: MOLT-4
HCT-116 = tested on: HCT-116
HL-60 = tested on: HL-60
NCI-H460 = tested on: NCI-H460
UACC-62 = tested on: UACC-62
IGROV-1 = tested on: IGROV-1
SNB-19 = tested on: SNB-19
EKVX = tested on: EKVX
OVCAR-3 = tested on: OVCAR-3
OVCAR-8 = tested on: OVCAR-8
CCRF-CEM = tested on: CCRF-CEM
LOX IMVI = tested on: LOX IMVI
HOP-62 = tested on: HOP-62
U-251 = tested on: U-251
COLO 205 = tested on: COLO 205
A549 = tested on: A549
OVCAR-4 = tested on: OVCAR-4
OVCAR-5 = tested on: OVCAR-5
M14 = tested on: M14
RPMI-8226 = tested on: RPMI-8226
UO-31 = tested on: UO-31
SR = tested on: SR
SNB-75 = tested on: SNB-75
TK-10 = tested on: TK-10
PC-3 = tested on: PC-3
DU-145 = tested on: DU-145
HT-29 = tested on: HT-29
SF-295 = tested on: SF-295
MCF7 = tested on: MCF7
UACC-257 = tested on: UACC-257
NCI-H23 = tested on: NCI-H23
MDA-N = tested on: MDA-N
HCC 2998 = tested on: HCC 2998
K562 = tested on: K562
Hs-578T = tested on: Hs-578T
CAKI-1 = tested on: CAKI-1
NCI/ADR-RES = tested on: NCI/ADR-RES
MDA-MB-435 = tested on: MDA-MB-435
MDA-MB-231 = tested on: MDA-MB-231
A498 = tested on: A498

Measured: GI50

N=C(N)SCCc1ccccn1
inactive: NCI-H226 > 100 µM | ACHN > 100 µM | RXF 393 > 100 µM | SW-620 > 100 µM | SN12C > 100 µM | SK-OV-3 > 100 µM | 786-0 > 100 µM | KM12 > 100 µM | T47D > 100 µM | SF-268 > 100 µM | NCI-H522 > 100 µM | SK-MEL-2 > 100 µM | HOP-92 > 100 µM | Malme-3M > 100 µM | SK-MEL-28 > 100 µM | SF-539 > 100 µM | SK-MEL-5 > 100 µM | MOLT-4 > 100 µM | HCT-116 > 100 µM | HL-60 > 100 µM | NCI-H460 > 100 µM | UACC-62 > 100 µM | IGROV-1 > 100 µM | SNB-19 > 100 µM | EKVX > 100 µM | OVCAR-3 > 100 µM | OVCAR-8 > 100 µM | CCRF-CEM > 100 µM | LOX IMVI > 100 µM | HOP-62 > 100 µM | U-251 > 100 µM | COLO 205 > 100 µM | A549 > 100 µM | OVCAR-4 > 100 µM | OVCAR-5 > 100 µM | M14 > 100 µM | RPMI-8226 > 100 µM | UO-31 > 100 µM
> 100 µM: HCT-15

CCCCCCCCCCCCCCCCCCOC[C@H](COP(=O)(O)O[C@H]1[C@H](O)[C@@H](O)[C@H](O)C[C@H]1O)OC
inactive: SR 12.1 µM | SNB-75 13 µM | RPMI-8226 11.8 µM

CC(=O)OC[C@@]12CC[C@H]3C(C)(C)CCC[C@]3(C)[C@H]1C[C@@H](C1=CC(=O)O[C@H]1O)O2
2.05 µM: HCT-15
inactive: ACHN 2.54 µM | TK-10 3.94 µM | SW-620 4.81 µM | SN12C 3.55 µM | 786-0 1.8 µM | KM12 6.75 µM | T47D 2.59 µM | PC-3 5.43 µM | DU-145 7.29 µM | HT-29 2.52 µM | SF-268 10.4 µM | SF-295 8.67 µM | NCI-H522 1.62 µM | MCF7 1.58 µM | UACC-257 2.12 µM | SK-MEL-2 2.15 µM | NCI-H23 2.04 µM | SK-MEL-28 1.77 µM | MDA-N 2.24 µM | SF-539 2.39 µM | SK-MEL-5 2.8 µM | MOLT-4 1.36 µM | HCT-116 2.84 µM | NCI-H460 8.69 µM | UACC-62 1.94 µM | SNB-75 3.74 µM | HCC 2998 1.61 µM | IGROV-1 2.55 µM | SNB-19 16.7 µM | EKVX 11.7 µM | OVCAR-3 2.1 µM | OVCAR-8 3.18 µM | CCRF-CEM 1.24 µM | LOX IMVI 1.34 µM | HOP-62 10.4 µM | K562 1.48 µM | Hs-578T 4.9 µM | CAKI-1 2.64 µM | COLO 205 3.81 µM | A549 6.97 µM | NCI/ADR-RES 4.5 µM | OVCAR-5 19.7 µM | M14 2.45 µM | MDA-MB-435 2.13 µM | RPMI-8226 2.15 µM | UO-31 2.1 µM
active: SR 0.625 µM

O=C(O)CC1C(=O)OC2C3COC(=O)c4cc(O)c(O)c(O)c4-c4c(cc(O)c(O)c4O)C(=O)OC2C(OC(=O)c2cc(O)c(O)c4c2C1C(O)C(=O)O4)C(OC(=O)c1cc(O)c(O)c(O)c1)O3 (centres undefined)
17.5 µM: HCT-15
inactive: NCI-H226 30.4 µM | ACHN 30.4 µM | RXF 393 4.39 µM | TK-10 > 100 µM | SW-620 28.8 µM | SN12C 17.5 µM | SK-OV-3 18.5 µM | 786-0 18.5 µM | KM12 17 µM | T47D 59.8 µM | PC-3 33.8 µM | SR 33.7 µM | DU-145 36.4 µM | HT-29 13.6 µM | SF-268 36.6 µM | SF-295 27.8 µM | NCI-H522 15.9 µM | MDA-MB-231 26.2 µM | MCF7 16.9 µM | UACC-257 34.1 µM | SK-MEL-2 > 100 µM | HOP-92 16.7 µM | NCI-H23 49.3 µM | Malme-3M > 100 µM | SK-MEL-28 95.5 µM | MDA-N 24.1 µM | SF-539 52.5 µM | SK-MEL-5 > 100 µM | MOLT-4 27.3 µM | HCT-116 14.6 µM | HL-60 7.43 µM | NCI-H460 16 µM | SNB-75 3.35 µM | HCC 2998 > 100 µM | IGROV-1 30.2 µM | SNB-19 > 100 µM | EKVX 18 µM | OVCAR-3 18 µM | OVCAR-8 20.5 µM | CCRF-CEM 13.7 µM | LOX IMVI 14 µM | HOP-62 > 100 µM | U-251 23.9 µM | K562 36.4 µM | Hs-578T 56.5 µM | A498 > 100 µM | CAKI-1 17.3 µM | COLO 205 35.1 µM | A549 21.6 µM | NCI/ADR-RES 16.7 µM | OVCAR-4 37.9 µM | OVCAR-5 13.5 µM | M14 27.7 µM | MDA-MB-435 26.4 µM | RPMI-8226 36.9 µM | UO-31 27.2 µM

COc1ccc2c(c[n+](C)c3c4cc5c(cc4ccc23)OCO5)c1OC
inactive: RXF 393 > 100 µM | T47D > 100 µM | PC-3 41.7 µM | DU-145 > 100 µM | MDA-MB-231 > 100 µM | MCF7 9.55 µM | MDA-N 16.7 µM | Hs-578T 80.4 µM | NCI/ADR-RES 34.8 µM | MDA-MB-435 19.3 µM

CCCC(=O)/C=C/S/C=C/C(=O)CCC
inactive: NCI-H226 3.72 µM | ACHN 2.7 µM | RXF 393 4.9 µM | TK-10 2.51 µM | SW-620 2.28 µM | SN12C 13.2 µM | SK-OV-3 34.4 µM | 786-0 2.1 µM | KM12 15.3 µM | T47D 4.09 µM | DU-145 11.5 µM | HT-29 3.26 µM | SF-268 26.9 µM | SF-295 23.9 µM | NCI-H522 1.71 µM | MDA-MB-231 4.84 µM | MCF7 28.2 µM | UACC-257 2.27 µM | SK-MEL-2 27.5 µM | NCI-H23 2.84 µM | Malme-3M 7.28 µM | SK-MEL-28 3.96 µM | SF-539 10.7 µM | SK-MEL-5 4.26 µM | HCT-116 1.65 µM | NCI-H460 5.3 µM | UACC-62 12.2 µM | SNB-75 27.2 µM | IGROV-1 21.6 µM | SNB-19 21.8 µM | EKVX 3.29 µM | OVCAR-3 4.09 µM | OVCAR-8 2.65 µM | LOX IMVI 2.38 µM | HOP-62 11.4 µM | U-251 14.3 µM | Hs-578T 4.67 µM | CAKI-1 2.86 µM | COLO 205 2.23 µM | A549 28.3 µM | NCI/ADR-RES 3.18 µM | OVCAR-4 4.42 µM | OVCAR-5 3.41 µM | M14 3.28 µM | MDA-MB-435 5.46 µM | UO-31 4.13 µM
2.36 µM: HCT-15

CC(C(O)c1ccccc1)[N+](=O)[O-] (centres undefined)
inactive: NCI-H226 24.4 µM | ACHN 16.3 µM | RXF 393 10.9 µM | TK-10 28.6 µM | SW-620 8.81 µM | SN12C 18.1 µM | 786-0 6.93 µM | KM12 19.4 µM | T47D 15.5 µM | PC-3 22.6 µM | SR 2.68 µM | DU-145 12.7 µM | HT-29 27.2 µM | SF-268 31.5 µM | SF-295 28.5 µM | NCI-H522 8.71 µM | MDA-MB-231 26.5 µM | MCF7 3.64 µM | UACC-257 16.8 µM | SK-MEL-2 19.5 µM | NCI-H23 32.8 µM | Malme-3M 21.7 µM | SK-MEL-28 19.8 µM | SF-539 20.3 µM | SK-MEL-5 17.9 µM | MOLT-4 1.65 µM | HCT-116 37.6 µM | HL-60 4.79 µM | NCI-H460 35.2 µM | UACC-62 20.2 µM | SNB-75 40.6 µM | HCC 2998 10.9 µM | IGROV-1 14.8 µM | SNB-19 24.5 µM | EKVX 30 µM | OVCAR-3 4.91 µM | OVCAR-8 16.4 µM | CCRF-CEM 10 µM | LOX IMVI 2.29 µM | HOP-62 25.3 µM | U-251 16.6 µM | K562 6.44 µM | Hs-578T 28.2 µM | A498 17.5 µM | CAKI-1 14.2 µM | COLO 205 22.4 µM | A549 17.7 µM | NCI/ADR-RES 28.1 µM | OVCAR-4 24.7 µM | OVCAR-5 24.1 µM | M14 6.43 µM | MDA-MB-435 18.5 µM | RPMI-8226 2.9 µM | UO-31 7.69 µM
11.5 µM: HCT-15
